According to article PMC7162861, “Synthesis, cytotoxicity, pharmacokinetic profile, binding with DNA and BSA of new imidazo[1,2-a]pyrazine-benzo[d]imidazol-5-yl hybrids” (Scientific Reports, 2020):

Experiments:
M14 = test: NCI cytotoxicity screen, Melanoma panel; format: cell-based, human; details: Homo sapiens, single dose 10 µM, negative = lethal, read-out: Percent growth inhibition
Procedure: (§1) Cytotoxicity was performed at National Cancer Institute (NCI), Bethesda, USA as per their protocols.

LOX IMVI = test: NCI cytotoxicity screen, Melanoma panel; format: cell-based, human; details: Homo sapiens, single dose 10 µM, negative = lethal, read-out: Percent growth inhibition
Procedure: as §1

RXF 393 = test: NCI cytotoxicity screen, Renal Cancer panel; format: cell-based; details: Homo sapiens, single dose 10 µM, negative = lethal, read-out: Percent growth inhibition
Procedure: as §1

SN12C = test: NCI cytotoxicity screen, Renal Cancer panel; format: cell-based; details: Homo sapiens, single dose 10 µM, negative = lethal, read-out: Percent growth inhibition
Procedure: as §1

ACHN = test: NCI cytotoxicity screen, Renal Cancer panel; format: cell-based; details: Homo sapiens, single dose 10 µM, negative = lethal, read-out: Percent growth inhibition
Procedure: as §1

A498 = test: NCI cytotoxicity screen, Renal Cancer panel; format: cell-based; details: Homo sapiens, single dose 10 µM, negative = lethal, read-out: Percent growth inhibition
Procedure: as §1

UO-31 = test: NCI cytotoxicity screen, Renal Cancer panel; format: cell-based; details: Homo sapiens, single dose 10 µM, negative = lethal, read-out: Percent growth inhibition
Procedure: as §1

NCI-H23 = test: NCI cytotoxicity screen, Non-Small Cell Lung Cancer panel; format: cell-based, human; details: Homo sapiens, single dose 10 µM, negative = lethal, read-out: Percent growth inhibition
Procedure: as §1

NCI-522 = test: as above; format: cell-based, human; details: Homo sapiens; NCI-522; single dose 10 µM; negative = lethal; read-out: Percent growth inhibition
Procedure: as §1

NCI-H226 = test: as above; format: cell-based, human; details: Homo sapiens, single dose 10 µM, negative = lethal, read-out: Percent growth inhibition
Procedure: as §1

NCI-H322M = test: as above; format: cell-based, human; details: Homo sapiens, single dose 10 µM, negative = lethal, read-out: Percent growth inhibition
Procedure: as §1

OVCAR-3 = test: NCI cytotoxicity screen, Ovarian Cancer panel; format: cell-based, human; details: Homo sapiens; OVCAR-3; single dose 10 µM; negative = lethal; read-out: Percent growth inhibition
Procedure: as §1

OVCAR-4 = test: NCI cytotoxicity screen, Ovarian Cancer panel; format: cell-based; details: Homo sapiens; OVCAR-4; single dose 10 µM; negative = lethal; read-out: Percent growth inhibition
Procedure: as §1

IGROV1 = test: NCI cytotoxicity screen, Ovarian Cancer panel; format: cell-based; details: Homo sapiens, IGROV-1, single dose 10 µM, negative = lethal, read-out: Percent growth inhibition
Procedure: as §1

SK-OV-3 = test: NCI cytotoxicity screen, Ovarian Cancer panel; format: cell-based; details: Homo sapiens, single dose 10 µM, negative = lethal, read-out: Percent growth inhibition
Procedure: as §1

OVCAR-5 = test: NCI cytotoxicity screen, Ovarian Cancer panel; format: cell-based; details: Homo sapiens, single dose 10 µM, negative = lethal, read-out: Percent growth inhibition
Procedure: as §1

OVCAR-8 = test: NCI cytotoxicity screen, Ovarian Cancer panel; format: cell-based; details: Homo sapiens, single dose 10 µM, negative = lethal, read-out: Percent growth inhibition
Procedure: as §1

NCI/ADR-RES = test: NCI cytotoxicity screen, Ovarian Cancer panel; format: cell-based; details: Homo sapiens, single dose 10 µM, negative = lethal, read-out: Percent growth inhibition
Procedure: as §1

SF-268 = test: NCI cytotoxicity screen, CNS Cancer panel; format: cell-based; details: Homo sapiens, single dose 10 µM, negative = lethal, read-out: Percent growth inhibition
Procedure: as §1

SF-295 = test: NCI cytotoxicity screen, CNS Cancer panel; format: cell-based; details: Homo sapiens, single dose 10 µM, negative = lethal, read-out: Percent growth inhibition
Procedure: as §1

SNB-19 = test: NCI cytotoxicity screen, CNS Cancer panel; format: cell-based; details: Homo sapiens; SNB-19; single dose 10 µM; negative = lethal; read-out: Percent growth inhibition
Procedure: as §1

SF-539 = test: NCI cytotoxicity screen, CNS Cancer panel; format: cell-based; details: Homo sapiens, single dose 10 µM, negative = lethal, read-out: Percent growth inhibition
Procedure: as §1

SNB-75 = test: NCI cytotoxicity screen, CNS Cancer panel; format: cell-based; details: Homo sapiens, single dose 10 µM, negative = lethal, read-out: Percent growth inhibition
Procedure: as §1

U251 = test: NCI cytotoxicity screen, CNS Cancer panel; format: cell-based; details: Homo sapiens, U-251; U251; single dose 10 µM; negative = lethal; read-out: Percent growth inhibition
Procedure: as §1

TK-10 = test: NCI cytotoxicity screen, Renal Cancer panel; format: cell-based, human; details: Homo sapiens, single dose 10 µM, negative = lethal, read-out: Percent growth inhibition
Procedure: as §1

786-0 = test: NCI cytotoxicity screen, Renal Cancer panel; format: cell-based, human; details: Homo sapiens, single dose 10 µM, negative = lethal, read-out: Percent growth inhibition
Procedure: as §1

T-47D = test: NCI cytotoxicity screen, Breast Cancer panel; format: cell-based; details: Homo sapiens, T47D, T-47D; single dose 10 µM; negative = lethal; read-out: Percent growth inhibition
Procedure: as §1

HS 578 T = test: NCI cytotoxicity screen, Breast Cancer panel; format: cell-based; details: Homo sapiens; HS 578T; single dose 10 µM; negative = lethal; read-out: Percent growth inhibition
Procedure: as §1

MCF7 = test: NCI cytotoxicity screen, Breast Cancer panel; format: cell-based; details: Homo sapiens, single dose 10 µM, negative = lethal, read-out: Percent growth inhibition
Procedure: as §1

Brc1cn2ccnc2c(-c2ccc3c(c2)ncn3C2CCCCC2)n1 [Compound 8, 6-bromo-8-(1-cyclohexyl-1H-benzo[d]imidazol-5-yl)imidazo[1,2-a]pyrazine]
inhibition at 10 µM (M14): < 1% | inhibition at 10 µM (LOX IMVI): 9.14% | inhibition at 10 µM (RXF 393): < 1% | inhibition at 10 µM (SN12C): < 1% | inhibition at 10 µM (ACHN): < 1% | inhibition at 10 µM (A498): 3.51% | inhibition at 10 µM (UO-31): 40.1% | inhibition at 10 µM (NCI-H23): 8.76% | inhibition at 10 µM (NCI-522): 15.2% | inhibition at 10 µM (NCI-H226): 3.73% | inhibition at 10 µM (NCI-H322M): 10.9% | inhibition at 10 µM (OVCAR-3): < 1% | inhibition at 10 µM (OVCAR-4): 9.25% | inhibition at 10 µM (IGROV1): 8.45% | inhibition at 10 µM (SK-OV-3): 6.59% | inhibition at 10 µM (OVCAR-5): < 1% | inhibition at 10 µM (OVCAR-8): 3.55% | inhibition at 10 µM (NCI/ADR-RES): 5.47% | inhibition at 10 µM (SF-268): 5.8% | inhibition at 10 µM (SF-295): 7.58% | inhibition at 10 µM (SNB-19): 10.5% | inhibition at 10 µM (SF-539): 6.65% | inhibition at 10 µM (SNB-75): 16.4% | inhibition at 10 µM (U251): < 1% | inhibition at 10 µM (TK-10): < 1% | inhibition at 10 µM (786-0): 1.3% | inhibition at 10 µM (T-47D): 25.3% | inhibition at 10 µM (HS 578 T): 2.68% | inhibition at 10 µM (MCF7): 37.6%
